# Source: PubChem BioAssay AID2060912 (Molecular Pharmacology Branch, DTP, NCI, 2025)
# System: HUVEC/MSC spheroids viability
# Experiment: Human HUVEC/MSC cell line growth inhibition [KRAS2];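 for viability, T/C: percent of DMSO vehicle control luminescence so 100% = untreated viability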
# Conditions: for IC50: curve of first compound; for viability, T/C: stronger effect = lower value
# Summary of the method: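 Spheroids of pooled-donor HUVEC and hMSC (passage ≤5) without tumour cells were treated with KRAS-pathway inhibitors alone and combined with targeted agents. Top concentration was at or near clinical Cmax, or 10 microM when Cmax was unknown, descending in half-log steps.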
# [1] = second compound 0.0316 µM, first compound 0.0316 µM
# [2] = second compound 0.0316 µM, first compound 0.1 µM
# [3] = second compound 0.0316 µM, first compound 0.316 µM
# [4] = second compound 0.0316 µM, first compound 1 µM
# [5] = second compound 0.0316 µM, first compound 3.16 µM
# [6] = second compound 0.0316 µM, first compound 10 µM
# [7] = second compound 0.1 µM, first compound 0.0316 µM
# [8] = second compound 0.1 µM, first compound 0.1 µM
# [9] = second compound 0.1 µM, first compound 0.316 µM
# [10] = second compound 0.1 µM, first compound 1 µM
# [11] = second compound 0.1 µM, first compound 3.16 µM
# [12] = second compound 0.1 µM, first compound 10 µM
# [13] = second compound 0.316 µM, first compound 0.0316 µM
# [14] = second compound 0.316 µM, first compound 0.1 µM
# [15] = second compound 0.316 µM, first compound 0.316 µM
# [16] = second compound 0.316 µM, first compound 1 µM
# [17] = second compound 0.316 µM, first compound 3.16 µM
# [18] = second compound 0.316 µM, first compound 10 µM
# [19] = second compound 1 µM, first compound 0.0316 µM
# [20] = second compound 1 µM, first compound 0.1 µM
# [21] = second compound 1 µM, first compound 0.316 µM
# [22] = second compound 1 µM, first compound 1 µM
# [23] = second compound 1 µM, first compound 3.16 µM
# [24] = second compound 1 µM, first compound 10 µM
# [25] = second compound 3.16 µM, first compound 0.0316 µM
# [26] = second compound 3.16 µM, first compound 0.1 µM
# [27] = second compound 3.16 µM, first compound 0.316 µM
# [28] = second compound 3.16 µM, first compound 1 µM
# [29] = second compound 3.16 µM, first compound 3.16 µM
# [30] = second compound 3.16 µM, first compound 10 µM
# [31] = second compound 10 µM, first compound 0.0316 µM
# [32] = second compound 10 µM, first compound 0.1 µM
# [33] = second compound 10 µM, first compound 0.316 µM
# [34] = second compound 10 µM, first compound 1 µM
# [35] = second compound 10 µM, first compound 3.16 µM
# [36] = second compound 10 µM, first compound 10 µM
smiles,measurement,setting,value
CC(=O)Nc1cccc(-n2c(=O)n(C3CC3)c(=O)c3c(Nc4ccc(I)cc4F)n(C)c(=O)c(C)c32)c1 + CC1OCC2(CCN(c3cnc(Sc4ccnc(N)c4Cl)c(N)n3)CC2)C1N,IC50,second compound 0.0316 µM,0.0181 µM
same,IC50,second compound 0.1 µM,0.0159 µM
same,IC50,second compound 0.316 µM,0.0162 µM
same,IC50,second compound 1 µM,0.00518 µM
same,IC50,second compound 3.16 µM,0.00127 µM
same,IC50,second compound 10 µM,< 9.49e-05 µM
same,"viability, T/C","second compound 0.0316 µM, first compound 94.9 pM",110%
same,"viability, T/C","second compound 0.0316 µM, first compound 0.0003 µM",142%
same,"viability, T/C","second compound 0.0316 µM, first compound 0.000949 µM",113%
same,"viability, T/C","second compound 0.0316 µM, first compound 0.003 µM",118%
same,"viability, T/C","second compound 0.0316 µM, first compound 0.00949 µM",82.6%
same,"viability, T/C","second compound 0.0316 µM, first compound 0.03 µM",24.4%
same,"viability, T/C","second compound 0.1 µM, first compound 94.9 pM",118%
same,"viability, T/C","second compound 0.1 µM, first compound 0.0003 µM",106%
same,"viability, T/C","second compound 0.1 µM, first compound 0.000949 µM",104%
same,"viability, T/C","second compound 0.1 µM, first compound 0.003 µM",89.2%
same,"viability, T/C","second compound 0.1 µM, first compound 0.00949 µM",77.5%
same,"viability, T/C","second compound 0.1 µM, first compound 0.03 µM",21.9%
same,"viability, T/C","second compound 0.316 µM, first compound 94.9 pM",92.7%
same,"viability, T/C","second compound 0.316 µM, first compound 0.0003 µM",95.2%
same,"viability, T/C","second compound 0.316 µM, first compound 0.000949 µM",87.9%
same,"viability, T/C","second compound 0.316 µM, first compound 0.003 µM",81.8%
same,"viability, T/C","second compound 0.316 µM, first compound 0.00949 µM",74.5%
same,"viability, T/C","second compound 0.316 µM, first compound 0.03 µM",24.3%
same,"viability, T/C","second compound 1 µM, first compound 94.9 pM",85.6%
same,"viability, T/C","second compound 1 µM, first compound 0.0003 µM",75.1%
same,"viability, T/C","second compound 1 µM, first compound 0.000949 µM",69.1%
same,"viability, T/C","second compound 1 µM, first compound 0.003 µM",55.7%
same,"viability, T/C","second compound 1 µM, first compound 0.00949 µM",46%
same,"viability, T/C","second compound 1 µM, first compound 0.03 µM",10.9%
same,"viability, T/C","second compound 3.16 µM, first compound 94.9 pM",71.2%
same,"viability, T/C","second compound 3.16 µM, first compound 0.0003 µM",69.5%
same,"viability, T/C","second compound 3.16 µM, first compound 0.000949 µM",49.7%
same,"viability, T/C","second compound 3.16 µM, first compound 0.003 µM",39.9%
same,"viability, T/C","second compound 3.16 µM, first compound 0.00949 µM",22.7%
same,"viability, T/C","second compound 3.16 µM, first compound 0.03 µM",3.47%
same,"viability, T/C","second compound 10 µM, first compound 94.9 pM",48.7%
same,"viability, T/C","second compound 10 µM, first compound 0.0003 µM",39%
same,"viability, T/C","second compound 10 µM, first compound 0.000949 µM",33.3%
same,"viability, T/C","second compound 10 µM, first compound 0.003 µM",12.5%
same,"viability, T/C","second compound 10 µM, first compound 0.00949 µM",5.14%
same,"viability, T/C","second compound 10 µM, first compound 0.03 µM",0.77%
COC(=O)c1ccc2c(C(=Nc3ccc(N(C)C(=O)CN4CCN(C)CC4)cc3)c3ccccc3)c(O)[nH]c2c1 + CC1OCC2(CCN(c3cnc(Sc4ccnc(N)c4Cl)c(N)n3)CC2)C1N,IC50,second compound 0.0316 µM,1.55 µM
same,IC50,second compound 0.1 µM,1.18 µM
same,IC50,second compound 0.316 µM,0.62 µM
same,IC50,second compound 1 µM,0.623 µM
same,IC50,second compound 3.16 µM,0.528 µM
same,IC50,second compound 10 µM,0.353 µM
same,"viability, T/C",[1],112%
same,"viability, T/C",[2],111%
same,"viability, T/C",[3],89.7%
same,"viability, T/C",[4],52.6%
same,"viability, T/C",[5],38.8%
same,"viability, T/C",[6],2.26%
same,"viability, T/C",[7],94.1%
same,"viability, T/C",[8],106%
same,"viability, T/C",[9],77%
same,"viability, T/C",[10],47.8%
same,"viability, T/C",[11],32%
same,"viability, T/C",[12],0.33%
same,"viability, T/C",[13],108%
same,"viability, T/C",[14],82%
same,"viability, T/C",[15],73.4%
same,"viability, T/C",[16],34.9%
same,"viability, T/C",[17],16.6%
same,"viability, T/C",[18],1.89%
same,"viability, T/C",[19],74.3%
same,"viability, T/C",[20],72.8%
same,"viability, T/C",[21],74.2%
same,"viability, T/C",[22],33.4%
same,"viability, T/C",[23],0.59%
same,"viability, T/C",[24],0.29%
same,"viability, T/C",[25],69.4%
same,"viability, T/C",[26],73.3%
same,"viability, T/C",[27],64.5%
same,"viability, T/C",[28],30.9%
same,"viability, T/C",[29],0.39%
same,"viability, T/C",[30],0.29%
same,"viability, T/C",[31],63.5%
same,"viability, T/C",[32],61.1%
same,"viability, T/C",[33],53.8%
same,"viability, T/C",[34],14.7%
same,"viability, T/C",[35],0.37%
same,"viability, T/C",[36],0.38%
COc1cc(Nc2ncc3c(n2)-c2ccc(Cl)cc2C(c2c(F)cccc2OC)=NC3)ccc1C(=O)O + CC1OCC2(CCN(c3cnc(Sc4ccnc(N)c4Cl)c(N)n3)CC2)C1N,IC50,second compound 0.0316 µM,> 10 µM
same,IC50,second compound 0.1 µM,> 10 µM
same,IC50,second compound 0.316 µM,> 10 µM
same,IC50,second compound 1 µM,9.81 µM
same,IC50,second compound 3.16 µM,9.34 µM
same,IC50,second compound 10 µM,5.94 µM
same,"viability, T/C",[1],101%
same,"viability, T/C",[2],128%
same,"viability, T/C",[3],105%
same,"viability, T/C",[4],87.7%
same,"viability, T/C",[5],85.2%
same,"viability, T/C",[6],60.1%
same,"viability, T/C",[7],118%
same,"viability, T/C",[8],105%
same,"viability, T/C",[9],97.5%
same,"viability, T/C",[10],87.5%
same,"viability, T/C",[11],103%
same,"viability, T/C",[12],56.9%
same,"viability, T/C",[13],110%
same,"viability, T/C",[14],116%
same,"viability, T/C",[15],106%
same,"viability, T/C",[16],101%
same,"viability, T/C",[17],94.7%
same,"viability, T/C",[18],49.5%
same,"viability, T/C",[19],106%
same,"viability, T/C",[20],101%
same,"viability, T/C",[21],92.9%
same,"viability, T/C",[22],81.7%
same,"viability, T/C",[23],77.2%
same,"viability, T/C",[24],47.4%
same,"viability, T/C",[25],79.5%
same,"viability, T/C",[26],91%
same,"viability, T/C",[27],72.4%
same,"viability, T/C",[28],88.8%
same,"viability, T/C",[29],79.2%
same,"viability, T/C",[30],48.2%
same,"viability, T/C",[31],66.4%
same,"viability, T/C",[32],76%
same,"viability, T/C",[33],76%
same,"viability, T/C",[34],72.6%
same,"viability, T/C",[35],70.8%
same,"viability, T/C",[36],32.8%
COc1cc2nccc(Oc3ccc(NC(=O)C4(C(=O)Nc5ccc(F)cc5)CC4)cc3)c2cc1OC + CC1OCC2(CCN(c3cnc(Sc4ccnc(N)c4Cl)c(N)n3)CC2)C1N,IC50,second compound 0.0316 µM,5.72 µM
same,IC50,second compound 0.1 µM,4.56 µM
same,IC50,second compound 0.316 µM,5.32 µM
same,IC50,second compound 1 µM,4.1 µM
same,IC50,second compound 3.16 µM,3.61 µM
same,IC50,second compound 10 µM,3.12 µM
same,"viability, T/C",[1],111%
same,"viability, T/C",[2],87.5%
same,"viability, T/C",[3],79.3%
same,"viability, T/C",[4],103%
same,"viability, T/C",[5],73.7%
same,"viability, T/C",[6],27.6%
same,"viability, T/C",[7],96.5%
same,"viability, T/C",[8],93%
same,"viability, T/C",[9],100%
same,"viability, T/C",[10],80.8%
same,"viability, T/C",[11],66.5%
same,"viability, T/C",[12],17.4%
same,"viability, T/C",[13],88.6%
same,"viability, T/C",[14],89.9%
same,"viability, T/C",[15],67.9%
same,"viability, T/C",[16],83%
same,"viability, T/C",[17],75%
same,"viability, T/C",[18],19.6%
same,"viability, T/C",[19],72.6%
same,"viability, T/C",[20],75.6%
same,"viability, T/C",[21],82.4%
same,"viability, T/C",[22],80%
same,"viability, T/C",[23],62.3%
same,"viability, T/C",[24],8.31%
same,"viability, T/C",[25],72.5%
same,"viability, T/C",[26],79%
same,"viability, T/C",[27],77.5%
same,"viability, T/C",[28],62.6%
same,"viability, T/C",[29],58.6%
same,"viability, T/C",[30],5.57%
same,"viability, T/C",[31],67.8%
same,"viability, T/C",[32],72%
same,"viability, T/C",[33],73.2%
same,"viability, T/C",[34],61.9%
same,"viability, T/C",[35],50.7%
same,"viability, T/C",[36],3.16%
